Reference: ChEMBL document CHEMBL2094269, “WEHI/Eskitis Trypanosoma b. brucei screening data”

Test system: Trypanosoma brucei brucei
Assay: microbe, parasite or virus in culture
Format: functional, organism-based, STIB 795
Conditions: Trypanosoma brucei, STIB 795
Description: DNDI: Inhibition of Human African Trypanosomiasis (HAT), STIB 795, in vitro

SMILES	IC50 [µM]
CCN1CCN(c2cc(C)c3cc(NC(=O)c4ccccc4F)ccc3n2)CC1	> 10.4
COc1ccc(C(=O)CSC2=C(C#N)C3(CCCCC3)C(C#N)=C(N)N2)cc1	> 10.4
CCN(CC)c1cc(C)c2cc(NC(=O)/C=C/c3ccccc3Cl)ccc2n1	> 10.4
CCOc1cc2c(cc1OCC)C(c1ccccc1)N(c1ccccc1)C(=O)C2 (stereo not given)	> 10.4
CCOC(=O)C1CCCN(C2=NC(=O)/C(=C/c3ccc(O)c(OC)c3)S2)C1 (stereo not given)	> 10.4
CCCCCn1c(C(Cc2ccccc2)NC(=O)COC)nc2ccccc21 (stereo not given)	> 10.4
Cc1ccc(CN2C(=O)CCC2C(=O)N2CCN(c3ccc(F)cc3)CC2)cc1 (stereo not given)	> 10.4
CCN1CCN(c2cc(C)c3cc(NC(=O)c4cccs4)ccc3n2)CC1	> 10.4
COC(=O)c1cc(NC(=O)Nc2ccc3snnc3c2)cc(C(=O)OC)c1	> 10.4
N#CC1=C(N)OC2=C(CC/C2=C\c2ccccc2Cl)C1c1ccccc1Cl (stereo not given)	> 10.4
CCn1cc(C(=O)N(C)c2ccccc2F)c2cc(OC)c(OC)cc2c1=O	> 10.4
O=C(O)CSc1cc(NS(=O)(=O)c2ccccc2)c2ccccc2c1O	> 10.4
CC[n+]1c(/C=C2\Sc3ccccc3N2CCC(=O)O)sc2ccccc21	> 10.4
CSc1ccc(/C=C2\CN(C)C/C(=C\c3ccc(SC)cc3)C2=O)cc1	> 10.4
CC1CCN(Cc2cc(CSc3ccccc3)c3cccnc3c2O)CC1	> 10.4
O=C(Nc1ccccc1C(=O)N/N=C/c1ccccn1)c1ccc(Cl)cc1	> 10.4
Cc1c(-c2cc(Cl)cc(-c3ccc(F)cc3)c2)ccc2nc(N)nc(N)c12	> 10.4
COc1ccc(C(=O)O/N=C(\N)c2ccc(Br)cc2)c(OC)c1	> 10.4
Clc1ccc(Nc2nc3nonc3nc2NC2CCCCC2)cc1Cl	> 10.4
Cc1cc(C)c(C(=O)CC(SCC(=O)OC(C)C)C(F)(F)F)c(=O)[nH]1 (stereo not given)	> 10.4
CCC(=O)Nc1nc2ccc(NS(=O)(=O)c3ccccc3F)cc2s1	> 10.4
CCCCOC(=O)c1ccc(NC(=O)c2ccc(C3CCCCC3)cc2)cc1	> 10.4

SMILES	IC50 [µM]
Cc1ccccc1-c1cc(N2CCN(C(=O)NC3CCCCC3)CC2)ncn1	> 10.4
CN(C)c1ccc(/C=N/Nc2cc(N3CCCC3)nc(N3CCCC3)n2)cc1	> 10.4
O=C(O)c1ccc(NC(CC(=O)c2ccc(Cl)cc2)c2ccccc2)cc1 (stereo not given)	> 10.4
O=C(CC(SCc1ccco1)c1ccc(C(F)(F)F)cc1)c1ccco1 (stereo not given)	> 10.4
COC(=O)c1ccc2c(c1)C(C)(C)C(/C=C/c1cccc(OC)c1OC)=[N+]2C	> 10.4
COc1ccc(S(=O)(=O)C(CC(=O)c2ccccc2)c2ccccc2)cc1 (stereo not given)	> 10.4
O=C1N=C(Nc2cccc(Cl)c2Cl)S/C1=C\c1ccc(O)c(O)c1	> 10.4
C/C(=N/NC(=O)c1cc(-c2ccccc2)nc2ccccc12)c1ccccc1O	> 10.4
CCOC(=O)c1c(-c2cccs2)csc1NC(=O)C#Cc1ccccc1	> 10.4
Cc1cccc(C(=O)N2CCN(c3cc(N4CCOCC4)nc(C)n3)CC2)c1	> 10.4
CN(C)c1ccc(C(=O)NN=C2C=C(C(C)(C)C)C(=O)C(C(C)(C)C)=C2)cc1	> 10.4
COc1ccccc1NC(=S)N/N=C/c1cccn1Cc1ccccc1F	> 10.4
CSC1C(c2ccc(F)cc2)=NN(C(=O)Nc2ccc(C#N)cc2)C1(C)C (stereo not given)	> 10.4
COc1ccc(CN2CCc3nc(N4CCC(C)CC4)ncc3C2)c(OC)c1	> 10.4
CN(C)c1ccc(N=c2cc(-c3ccccc3)sc(-c3ccccc3)c2)cc1	> 10.4
C/C(=N/OC(=O)c1ccc(Cn2nc(C)c(Cl)c2C)cc1)c1ccccn1	> 10.4
O=C(CCCOc1ccc(Cl)cc1Cl)N/N=C/c1ccc(O)cc1O	> 10.4
COc1ccc(CC(=O)Nc2sc3c(c2C#N)CC(C)(C)NC3(C)C)cc1	> 10.4
CCOC(=O)c1cnc2c(CC)cccc2c1NC1CC(C)(C)NC(C)(C)C1	> 10.4
COc1cc(NC(=O)Nc2ccc(-c3noc(C)n3)cc2)cc(OC)c1OC	> 10.4
CCN(CC)S(=O)(=O)c1cccc(N/N=C2\C=CC(=O)c3cccnc32)c1	> 10.4
CCOC(=O)c1ccc(NC(=O)NC23CC4(C)CC(C)(CC(C)(C4)C2)C3)cc1	> 10.4

SMILES	IC50 [µM]
Cn1ccnc1-c1c(-c2ccc(Cl)cc2)nc(-c2ccc(Cl)cc2)n1O	> 10.4
CCC(=C\C1=[N+](C)c2ccccc2C1(C)C)/C=C1/N(C)c2ccccc2C1(C)C	> 10.4
CN(C)CCNC(=O)c1ccc2c(c1)NC(=O)/C(=C/c1ccccc1Cl)O2	> 10.4
CCCN1CCN(c2ncc3c(n2)CCN(Cc2ccccc2Cl)C3)CC1	> 10.4
CC(=O)N(C)c1ccc(/N=C2/C(=O)Nc3cc(Br)c(C)cc32)cc1	> 10.4
CC(C)N1C/C(=C\c2cccc(Cl)c2)C(=O)/C(=C/c2cccc(Cl)c2)C1	> 10.4
O=C(CC1(O)C(=O)Nc2ccc(Br)cc21)c1ccc(Cl)s1 (stereo not given)	> 10.4
Cc1ccc(C(CNC(=O)c2ccc(Br)cc2)N2CCCC2)cc1 (stereo not given)	> 10.4
CCOC(=O)c1ccc(Nc2ncnc3c2cnn3-c2ccc(C)cc2C)cc1	> 10.4
CCOC(=O)c1nc(Nc2cc(Cl)c(OC)cc2OC)c2ccccc2n1	> 10.4
COc1ccc(Nc2nc(N3CCN(C)CC3)nc3c2cnn3C)cc1Cl	> 10.4
O=C(CCn1nnc2ccccc21)N/N=C/c1cc(Br)ccc1O	> 10.4
CC1CCN(C(=S)NC(=O)c2ccccc2I)CC1	> 10.4
CCn1c2ccccc2c2cc(CNCCc3ccc(OC)c(OC)c3)ccc21	> 10.4
CSc1ccc(C2N=C(c3ccc(C)cc3)CC(c3ccccc3O)N2)cc1 (stereo not given)	> 10.4
Cc1ccc(S(=O)(=O)C(CC(=O)c2ccco2)c2ccc(Cl)cc2)cc1 (stereo not given)	> 10.4
CCN(CC)c1cc(C)c2cc(NC(=O)/C=C/c3ccc(OC)cc3)ccc2n1	> 10.4
CCCCOc1cccc(-c2cc(C(=O)N/N=C(\C)CC)c3ccccc3n2)c1	> 10.4
CCCC(=O)c1ccc(N2CCN(C(=O)c3c(F)cccc3F)CC2)c(F)c1	> 10.4
Cc1ccc(N2CC(C(=O)NCc3nnnn3-c3ccccc3)CC2=O)cc1C (stereo not given)	> 10.4
C=CCN1C(=O)c2ccccc2Sc2ccc(C(=O)NCc3ccco3)cc21	> 10.4
Cc1cc(C)n(-c2nc(N/N=C/c3cccs3)nc(Nc3ccccc3)n2)n1	> 10.4

SMILES	IC50 [µM]
Cc1c(NC(=O)CN2CCN(C(=O)c3ccccc3)CC2)n(C)c2ccccc12	> 10.4
CC(C)NC(=O)Nc1ccc(-c2noc(-c3ccc(Br)o3)n2)cc1	> 10.4
CN(CC(=O)Nc1nncs1)S(=O)(=O)c1ccc(Br)cc1	> 10.4
CCOC(=O)N1CCN(c2ccc(/C=C(\C#N)c3nc4ccccc4[nH]3)o2)CC1	> 10.4
CCOC(=O)c1c(NC(C)=O)sc2c1CCC(Sc1ccccc1)C2O (stereo not given)	> 10.4
Cc1ccsc1/C=C/C(=O)Nc1ccc2nc(N3CCCCC3)cc(C)c2c1	> 10.4
CCN1CCC(N(Cc2cccs2)C(=O)Nc2ccc(C)c(Cl)c2)CC1	> 10.4
CCOC(=O)c1cc2c(=O)n3ccccc3nc2n(CCCn2ccnc2)c1=N	> 10.4
O=C(NN=C(/C=C/c1ccccc1)c1ccccc1)c1cc2ccccc2cc1O	> 10.4
COc1ccccc1-n1c(C)cc(/C=C2\C(=N)N3C(C)=CSC3=NC2=O)c1C	> 10.4
O=C(Nc1cccc(Cl)c1)C1CCN(c2ncc(-c3ccccc3)cn2)CC1	> 10.4
OCCN1CCN(C2Cc3ccccc3Sc3cc(Cl)c(F)cc32)CC1 (stereo not given)	> 10.4
C/C(=C\c1nsc(Nc2ccc(F)c(Cl)c2)n1)NCCC1=CCCCC1	> 10.4
C/C(=N/Nc1ccc(F)cc1F)c1cc2cc(Br)ccc2oc1=O	> 10.4
COc1ccc(C(=O)c2ccc(N3CCNCC3)c(F)c2)cc1Br	> 10.4
O=C(Nc1ccccc1C(=O)N/N=C/c1ccc(O)cc1O)c1ccc(F)cc1	> 10.4
Oc1c(C(Nc2ccccn2)c2ccc(OC(F)F)cc2)ccc2cccnc12 (stereo not given)	> 10.4
CC(=O)NC1=C(N2CCN(c3ccc(F)cc3)CC2)C(=O)c2ccccc2C1=O	> 10.4
O=C(NCC1CCCO1)c1cccc(Oc2cc(-c3ccc(F)cc3)ncn2)c1 (stereo not given)	> 10.4
Cc1nnc(Sc2nc(Nc3ccccc3)nc(Nc3ccccc3)n2)s1	> 10.4
Cc1nc(=S)sn1-c1nc(Nc2ccccc2)nc(Nc2ccccc2)n1	> 10.4
CCn1cc(CN2CCC(C(=O)NCc3ccc(F)cc3)CC2)c2ccccc21	> 10.4

SMILES	IC50 [µM]
O=C(Nc1ccccc1C(=O)N/N=C/c1ccccc1O)c1ccccc1Cl	> 10.4
Cc1ccnc(NC(c2ccc3cccnc3c2O)c2c(F)cccc2Cl)c1 (stereo not given)	> 10.4
Cc1cc(N2CCC(C)CC2)nc2ccc(NC(=O)c3cccc(Cl)c3)cc12	> 10.4
CC(C)(C)c1ccc(C(OC(CN)c2ccccc2)c2ccc(Cl)cc2)cc1 (stereo not given)	> 10.4
Cc1nc2ccc3nc(NC(=O)c4ccc(Cl)cc4Cl)sc3c2s1	> 10.4
CCOC(=O)c1ccc(NC(=O)CN(c2cccc(F)c2)S(C)(=O)=O)cc1	> 10.4
O=C1C(Nc2ccccc2)=C/C(=N/S(=O)(=O)c2cccs2)c2ccccc21	> 10.4
[H]/N=C(/N)SCc1nc2n(Cc3ccccc3)c3ccccc3n2c1C(=O)OC	> 10.4
COc1ccc(CNC2=C(C(=S)Nc3ccccc3)C(=O)CC(C)(C)C2)cc1	> 10.4
Oc1ccc(-c2nnc(SCCN3CCCCC3)n2Cc2ccccc2)cc1	> 10.4
COc1ccc(CN2CCN(C3CCC(c4ccccc4)CC3)CC2)c(OC)c1 (stereo not given)	> 10.4
CC1=NN(c2ccccc2)C(=O)/C1=C/c1ccc(Sc2ccc(Cl)cc2)o1	> 10.4
Clc1ccc2nc(CCc3ccccc3)nc(NCCN3CCCCC3)c2c1	> 10.4
O=C(O)c1ccccc1N/N=C(/c1ccccc1)c1ccc(Br)cc1	> 10.4
COc1cccc(C2=CC(c3cc(OC)c(OC)c(OC)c3)n3nnnc3N2)c1 (stereo not given)	> 10.4
Cc1cc(N2CCC(C)CC2)nc2ccc(NC(=O)c3c(F)cccc3F)cc12	> 10.4
CCN(CC)c1cc(C)c2cc(NC(=O)C3CCC(C(C)(C)C)CC3)ccc2n1 (stereo not given)	> 10.4
O=C(CCC(=O)Nc1cccc(Cl)c1)N/N=C/c1c(O)ccc2ccccc12	> 10.4
COc1cccc(/C=N/NC(=O)c2ccccc2I)c1O	> 10.4
CCOC(=O)c1sc(-n2[nH]c(C)c(Cc3ccc(Cl)cc3)c2=O)nc1C	> 10.4
CCC(CO)NCC(O)Cn1c2ccc(Cl)cc2c2cc(Cl)ccc21 (stereo not given)	> 10.4
CC(/C=N/NC(=O)c1cc(-c2ccc(OC(C)C)cc2)n[nH]1)=C\c1ccccc1	> 10.4
